This is an account of results in patent US8399014B2, “Physiologically active complex comprising protamine and/or salt therefor and an acidic macromolecular substance, and use thereof” (Maruha Nichiro Foods, Inc., priority 2008, dated 2013).

The test system of assay [1] is blood tri-glyceride level. In words: Animal test of fat absorption suppressive effect: blood tri-glyceride AUC after corn oil. The class given is in vivo. The conditions noted are these: Male SD rats. Here is the method: (1) Sample for control group: Distilled water was filtrated by a membrane filter (DISMIC-13CP, PTFE, φ0.45 μm, ADVANTEC) and used as a test sample for the control group.
(2) Sample for protamine group: Protamine (2.50 g) was dissolved in distilled water (50 mL) filtrated by a membrane filter and used as a test sample for the protamine group.
(3) Sample for alginate mixture group: As a dispersant, soybean polysaccharide (SM-700, 400 mg) was dissolved in distilled water (50 mL) filtrated by a membrane filter to prepare a 0.8% dispersant solution. Protamine (2.00 g) was dissolved with the 0.8% dispersant solution (20 mL) to prepare a protamine solution. To the protamine solution (12.5 mL), an alginate solution (12.5 mL), which was prepared by dissolving alginate (1.60 g) in the 0.8% dispersant solution (20 mL), was added while stirring to prepare a protamine complex suspension and used as a test sample for an alginate complex (mixture) group.
(4) Sample for gum arabic mixture group: Protamine (2.00 g) was dissolved in distilled water (20 mL) to prepare a protamine solution. […]
Evaluation was performed using Male SD rats (6 weeks old, 7 rats per group). […] Using the plasma samples, a blood tri-glyceride level was measured and compared to the control group with respect to blood-level area under the curve (AUC).

For the next assay, the system named is fat absorption. Particulars: oral; protamine dose of 0.5 g; cited from earlier work.

Turning to protamine, the “fat absorption suppressive effect compared to the control group” value in assay [1] (oral, corn oil load) was “significant fat absorption suppressive effect”. In addition, the “AUC relative to control group (blood tri-glyceride level)” value in assay [1] (test substance 5 mL/kg orally (corresponding to 0.5 g/kg in terms of protamine), then corn oil 5 mL/kg, blood at 0, 1.5, 3.0, 4.5 hours) turned out to be 78 ± 7%. Further, the “fat absorption suppressive effect when orally taken by humans” value in the assay with fat absorption was “exerts a fat absorption suppressive effect”.
